pIC50: −log10 of the molar value.

Our source for the IC50 values is patent US20140155376A1, “PYRROLOPYRAZINE KINASE INHIBITORS” (Hoffmann-La Roche Inc., priority 2010, published 2014).

The test deals with T1, JAK3 (recombinant human kinase domain; h-jak3(810-1124)) (Homo sapiens, UniProt P52333).
T1 construct: h-jak3(810- 1124)-sf9-c; made in house; host or cells: Sf9 insect cells
T1 sequence (P52333 810-1124): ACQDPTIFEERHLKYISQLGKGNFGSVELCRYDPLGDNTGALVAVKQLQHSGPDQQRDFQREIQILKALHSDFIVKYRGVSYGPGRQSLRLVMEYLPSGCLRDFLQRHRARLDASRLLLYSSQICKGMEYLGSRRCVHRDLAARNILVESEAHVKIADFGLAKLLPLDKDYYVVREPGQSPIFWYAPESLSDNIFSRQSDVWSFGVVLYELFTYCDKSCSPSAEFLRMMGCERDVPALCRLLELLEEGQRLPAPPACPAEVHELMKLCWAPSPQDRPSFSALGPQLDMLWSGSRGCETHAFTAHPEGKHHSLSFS
The experiment in a line: Determination of IC50 of Janus Kinase (JAK) inhibition: JAK3, radioactive end-point assay with 33P-ATP. The class given is biochemical. The note with it: JAK3 kinase domain; ATP 1.5 uM, peptide 50 uM, 20 minutes, room temperature, 10% DMSO; read-out: Ic50 h-jak3(810-1124)-sf9-c:no additive.
Broadly, the pIC50 is −log10 of the IC50, conventionally taken in molar units. `CCNC(=O)c1c[nH]c2ncc(Oc3cc(OC)cc(OC)c3)nc12` [Example I-263, 2-(3,5-Dimethoxy-phenoxy)-5H-pyrrolo[2,3-b]pyrazine-7-carboxylic acid ethylamide]: the negative-log IC50 (pIC50) is 5.63. Then `C[C@H](NC(=O)c1c[nH]c2ncc(-c3ccc(C(=O)NC4CCS(=O)(=O)CC4)s3)nc12)C(C)(C)C` [Example I-212, 2-[5-(1,1-Dioxo-hexahydro-1λ^6-thiopyran-4-ylcarbamoyl)-thiophen-2-yl]-5H-pyrrolo[2,3-b]pyrazine-7-carboxylic acid ((S)-1,2,2-trimethyl-propyl)-amide], with 9.80; and `CC(C)(CO)CNC(=O)c1c[nH]c2ncc(Nc3ccccc3)nc12` [Example I-15, 2-Phenylamino-5H-pyrrolo[2,3-b]pyrazine-7-carboxylic acid (3-hydroxy-2,2-dimethyl-propyl)-amide], with 8.13; and `CC(NC(=O)c1c[nH]c2ncc(Oc3ccccc3F)nc12)C1CC1` (stereo not drawn) [Example I-114, 2-(2-Fluoro-phenoxy)-5H-pyrrolo[2,3-b]pyrazine-7-carboxylic acid (1-cyclopropyl-ethyl)-amide], with 7.20.

Take `C=Cc1cccc(-n2cnc(-c3cnc4[nH]cc(C(=O)N[C@@H](C)C(C)(C)C)c4n3)c2)c1` [Example I-163, 2-[1-(3-Vinyl-phenyl)-1H-imidazol-4-yl]-5H-pyrrolo[2,3-b]pyrazine-7-carboxylic acid ((S)-1,2,2-trimethyl-propyl)-amide]: the pIC50 is 8.52. In the case of `CCNC(=O)c1c[nH]c2ncc(Oc3ccc4cc[nH]c4c3)nc12` [Example I-273, 2-(1H-Indol-6-yloxy)-5H-pyrrolo[2,3-b]pyrazine-7-carboxylic acid ethylamide], the pIC50 is 6.33. Then `Cc1cc(-c2cnc3[nH]cc(C(=O)N[C@@H](C)C(C)(C)C)c3n2)sc1C(=O)N1CCS(=O)(=O)CC1` [Example I-220, 2-[5-(1,1-Dioxo-1λ^6-thiomorpholine-4-carbonyl)-4-methyl-thiophen-2-yl]-5H-pyrrolo[2,3-b]pyrazine-7-carboxylic acid ((S)-1,2,2-trimethyl-propyl)-amide], with 9.64. Then `CC(=O)N[C@@H]1CCc2ccc(Oc3cnc4[nH]cc(C(=O)N[C@@H](C)C(C)(C)C)c4n3)cc21` [Example I-287, 2-((R)-3-Acetylamino-indan-5-yloxy)-5H-pyrrolo[2,3-b]pyrazine-7-carboxylic acid ((S)-1,2,2-trimethyl-propyl)-amide], with 7.70.

Turning to `CCNC(=O)c1c[nH]c2ncc(Oc3cccc(Cl)c3)nc12` [Example I-244, 2-(3-Chloro-phenoxy)-5H-pyrrolo[2,3-b]pyrazine-7-carboxylic acid ethylamide], the negative logarithm of the IC50 (pIC50) is 5.97. As to `C[C@@H](NC(=O)c1c[nH]c2ncc(C#N)nc12)C(C)(C)O` [Example I-115, 2-Cyano-5H-pyrrolo[2,3-b]pyrazine-7-carboxylic acid ((R)-2-hydroxy-1,2-dimethyl-propyl)-amide], the pIC50 is 5.48. As for `CCNC(=O)c1c[nH]c2ncc(Oc3ccccc3Cl)nc12` [Example I-265, 2-(2-Chloro-phenoxy)-5H-pyrrolo[2,3-b]pyrazine-7-carboxylic acid ethylamide], the pIC50 is 5.96.

Take `C[C@H](NC(=O)c1c[nH]c2ncc(-c3cn(-c4cc(Cl)ccc4F)cn3)nc12)C(C)(C)C` [Example I-147, 2-[1-(5-Chloro-2-fluoro-phenyl)-1H-imidazol-4-yl]-5H-pyrrolo[2,3-b]pyrazine-7-carboxylic acid ((S)-1,2,2-trimethyl-propyl)-amide]: the pIC50 was 8.61. Then `CC(C)(CNC(=O)c1c[nH]c2ncc(C3CC3)nc12)CS(C)(=O)=O` [Example I-98, 2-Cyclopropyl-5H-pyrrolo[2,3-b]pyrazine-7-carboxylic acid (3-methanesulfonyl-2,2-dimethyl-propyl)-amide], with 7.95; and `CC(C)NC(=O)c1c[nH]c2ncc(Oc3cccc(OC(F)(F)F)c3)nc12` [Example I-230, 2-(3-Trifluoromethoxy-phenoxy)-5H-pyrrolo[2,3-b]pyrazine-7-carboxylic acid isopropylamide], with 5.58.

`Cc1cc(-c2cnc3[nH]cc(C(=O)N[C@@H](C)C(C)(C)C)c3n2)sc1C(=O)N1CC(CO)(CO)C1` [Example I-222, 2-[5-(3,3-Bis-hydroxymethyl-azetidine-1-carbonyl)-4-methyl-thiophen-2-yl]-5H-pyrrolo[2,3-b]pyrazine-7-carboxylic acid ((S)-1,2,2-trimethyl-propyl)-amide]: the pIC50 is 9.96.

In the case of `CC(C)C(C#N)NC(=O)c1c[nH]c2ncc(C3CC3)nc12` (stereo not drawn) [Example I-89, 2-Cyclopropyl-5H-pyrrolo[2,3-b]pyrazine-7-carboxylic acid (1-cyano-2-methyl-propyl)-amide], the pIC50 is 7.87. Consider `CC(C)NC(=O)c1c[nH]c2ncc(Oc3ccc4c(c3)[C@H](O)CC4)nc12` [Example I-303, 2-((R)-3-Hydroxy-indan-5-yloxy)-5H-pyrrolo[2,3-b]pyrazine-7-carboxylic acid isopropylamide], for which the pIC50 is 6.85. Then `CC(C)(C#N)C(NC(=O)c1c[nH]c2ncc(C3CC3)nc12)C1CC1` (stereo not drawn) [Example I-81, 2-Cyclopropyl-5H-pyrrolo[2,3-b]pyrazine-7-carboxylic acid (2-cyano-1-cyclopropyl-2,2-dimethyl-ethyl)-amide], with 7.80; and `CC(C)NC(=O)c1c[nH]c2ncc(Oc3ccc4c(c3)[C@H](NC(=O)c3ccccc3)CC4)nc12` [Example I-286, 2-((R)-3-Benzoylamino-indan-5-yloxy)-5H-pyrrolo[2,3-b]pyrazine-7-carboxylic acid isopropylamide], with 6.82; and `CC(C)NC(=O)c1c[nH]c2ncc(Oc3ccc(F)cc3F)nc12` [Example I-132, 2-(2,4-Difluoro-phenoxy)-5H-pyrrolo[2,3-b]pyrazine-7-carboxylic acid isopropylamide], with 6.38. Then `CC(C)NC(=O)c1c[nH]c2ncc(Oc3ccc4ccn(C)c4c3)nc12` [Example I-276, 2-(1-Methyl-1H-indol-6-yloxy)-5H-pyrrolo[2,3-b]pyrazine-7-carboxylic acid isopropylamide], with 6.24. Then `CC(C)(C)[C@H](CO)NC(=O)c1c[nH]c2ncc(C3CC3)nc12` [Example I-52, 2-Cyclopropyl-5H-pyrrolo[2,3-b]pyrazine-7-carboxylic acid ((R)-1-hydroxymethyl-2,2-dimethyl-propyl)-amide], with 7.96.

As to `CS(=O)(=O)N1CCC(CNC(=O)c2c[nH]c3ncc(C4CC4)nc23)C1` (stereo not drawn) [Example I-109, 2-Cyclopropyl-5H-pyrrolo[2,3-b]pyrazine-7-carboxylic acid (1-methanesulfonyl-pyrrolidin-3-ylmethyl)-amide], the pIC50 is 6.64. Then `CCc1cccc(-n2cnc(-c3cnc4[nH]cc(C(=O)N[C@@H](C)C(C)(C)C)c4n3)c2)c1` [Example I-151, 2-[1-(3-Ethyl-phenyl)-1H-imidazol-4-yl]-5H-pyrrolo[2,3-b]pyrazine-7-carboxylic acid ((S)-1,2,2-trimethyl-propyl)-amide], with 7.91; and `C[C@H](NC(=O)c1c[nH]c2ncc(-c3cccs3)nc12)C(C)(C)C` [Example I-142, 2-Thiophen-2-yl-5H-pyrrolo[2,3-b]pyrazine-7-carboxylic acid ((S)-1,2,2-trimethyl-propyl)-amide], with 9.74. Then `C[C@H](NC(=O)c1c[nH]c2ncc(-c3cn(-c4cccc(C(F)(F)F)c4)cn3)nc12)C(C)(C)C` [Example I-146, 2-[1-(3-Trifluoromethyl-phenyl)-1H-imidazol-4-yl]-5H-pyrrolo[2,3-b]pyrazine-7-carboxylic acid ((S)-1,2,2-trimethyl-propyl)-amide], with 7.88; and `C[C@H](NC(=O)c1c[nH]c2ncc(-c3ccc(C(=O)NCc4cccnc4)s3)nc12)C(C)(C)C` [Example I-164, 2-{5-[(Pyridin-3-ylmethyl)-carbamoyl]-thiophen-2-yl}-5H-pyrrolo[2,3-b]pyrazine-7-carboxylic acid ((S)-1,2,2-trimethyl-propyl)-amide], with 9.49; and `COCC(C)NC(=O)c1ccc(-c2cnc3[nH]cc(C(=O)N[C@@H](C)C(C)(C)C)c3n2)s1` (stereo partly drawn) [Example I-214, 2-[5-(2-Methoxy-1-methyl-ethylcarbamoyl)-thiophen-2-yl]-5H-pyrrolo[2,3-b]pyrazine-7-carboxylic acid ((S)-1,2,2-trimethyl-propyl)-amide], with 9.55. Turning to `Cc1ccc(CNC(=O)c2ccc(-c3cnc4[nH]cc(C(=O)N[C@@H](C)C(C)(C)C)c4n3)s2)cc1` [Example I-184, 2-[5-(4-Methyl-benzylcarbamoyl)-thiophen-2-yl]-5H-pyrrolo[2,3-b]pyrazine-7-carboxylic acid ((S)-1,2,2-trimethyl-propyl)-amide], the pIC50 is 9.49. Then `CC(CO)CNC(=O)c1c[nH]c2ncc(C3CC3)nc12` (stereo not drawn) [Example I-69, 2-Cyclopropyl-5H-pyrrolo[2,3-b]pyrazine-7-carboxylic acid (3-hydroxy-2-methyl-propyl)-amide], with 6.84; and `C[C@H](NC(=O)c1c[nH]c2ncc(C3CC3)nc12)C1(C#N)CCCC1` [Example I-101, 2-Cyclopropyl-5H-pyrrolo[2,3-b]pyrazine-7-carboxylic acid [(S)-1-(1-cyano-cyclopentyl)-ethyl]-amide], with 7.92. Then `C[C@H](NC(=O)c1c[nH]c2ncc(C3CC3)nc12)c1cc[nH]n1` [Example I-37, 2-Cyclopropyl-5H-pyrrolo[2,3-b]pyrazine-7-carboxylic acid [(S)-1-(1H-pyrazol-3-yl)-ethyl]-amide], with 7.66. Regarding `CC(C)NC(=O)c1c[nH]c2ncc(Oc3ccc4c(c3)[C@@H](N)CC4)nc12` [Example I-289, 2-((S)-3-Amino-indan-5-yloxy)-5H-pyrrolo[2,3-b]pyrazine-7-carboxylic acid isopropylamide], the pIC50 was 6.27.
